This passage reports AC50 results from patent US20230104936A1, “TRPML MODULATORS” (Casma Therapeutics, Inc., priority 2019, published 2023).

The subject of the first assay is TFEB. The assay can be described thus: TFEB nuclear translocation assay, HeLa wt cells. The class given is cell-based. As to conditions: 2 hrs compound treatment, Table 1 does not say HeLa wt or TRPML1 KO. In outline:
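Cells are plated overnight, exposed to compounds for 2 hrs at 37° C, fixed with 4% PFA, blocked, and stained overnight at 4° C with rabbit anti-TFEB. After Alexa 488 secondary and Hoechst, nuclei and a perinuclear ring are segmented to give a nuclear:ring intensity ratio and AC50.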
`CC(c1cccc(F)c1N1CCCCC1)S(=O)(=O)c1ccc(S(=N)(=O)C(F)F)cc1` (single isomer, unassigned) [Compound A-938, (difluoromethyl)(4-((1-(3-fluoro-2-(piperidin-1-yl)phenyl)ethyl)sulfonyl)phenyl)(imino)-l6-sulfanone]: the AC50 – broadly, the midpoint of the concentration-response curve, whichever way the signal moves – was at least 10 µM.

The assay is the same for the next values; noted with them: Homo sapiens, HeLa, 2 h, 2 hrs compound treatment, Table 1 does not say HeLa wt or TRPML1 KO.
For `CN(C)S(=O)(=O)c1ccc(S(=O)(=O)Nc2cccc(F)c2N2CCC(CN3CC4C(C3)C4(F)F)CC2)cc1` (stereo not drawn) [Compound A-883, N4-{2-[4-({6,6-difluoro-3-azabicyclo[3.1.0]hexan-3-yl}methyl)piperidin-1-yl]-3-fluorophenyl}-N1,N1-dimethylbenzene-1,4-disulfonamide], the AC50 is at most 2 µM.

`CCC1(N2CCCCC2)CCN(c2ccccc2NS(=O)(=O)c2ccc(S(=O)(=O)N(C)C)cc2)CC1` [Compound A-475, N4-(2-{4′-ethyl-[1,4′-bipiperidin]-1′-yl}phenyl)-N1,N1-dimethylbenzene-1,4-disulfonamide]: the AC50 is at most 2 µM.

`CC(C)S(=O)(=O)c1ccc(S(=O)(=O)Nc2ccccc2N2CCC(O)(c3ccc(F)cn3)CC2)cc1` [Compound A-413] displayed an AC50 of 8.01 to 9.99 µM.

For `CC1(C)CC2(CCN(c3ccccc3NS(=O)(=O)c3ccc4c(c3)CCC(C(F)F)O4)CC2)CO1` (stereo not drawn) [Compound A-690, 2-(difluoromethyl)-N-(2-{3,3-dimethyl-2-oxa-8-azaspiro[4.5]decan-8-yl}phenyl)-3,4-dihydro-2H-1-benzopyran-6-sulfonamide], the AC50 lay in the range of 2.01 to 8 µM.

Regarding `CN(C)CC1(c2ccc(F)cc2)CCN(c2ccccc2NS(=O)(=O)c2ccc(S(=O)(=O)N(C)C)cc2)CC1` [Compound A-231, N4-(2-{4-[(dimethylamino)methyl]-4-(4-fluorophenyl)piperidin-1-yl}phenyl)-N1,N1-dimethylbenzene-1,4-disulfonamide], the AC50 is at most 2 µM.

`CN(C)S(=O)(=O)c1ccc(S(=O)(=O)Nc2cccc(C#CC(F)F)c2N2CCCCC2)cc1` [Compound A-921, N4-[3-(3,3-difluoroprop-1-yn-1-yl)-2-(piperidin-1-yl)phenyl]-N1,N1-dimethylbenzene-1,4-disulfonamide] yielded an AC50 of at most 2 µM.

As to `O=S(=O)(Nc1ccccc1N1CCN(c2ccc(Cl)cc2F)CC1)N1CCOCC1` [Compound A-43, N-{2-[4-(4-chloro-2-fluorophenyl)piperazin-1-yl]phenyl}morpholine-4-sulfonamide], the AC50 is at most 2 µM.

As to `CN(C)S(=N)(=O)c1ccc(S(=O)(=O)Nc2ccccc2N2CCC(c3ccc(Cl)cc3F)CC2)cc1` (stereo not drawn) [Compound A-112, 4-({2-[4-(4-chloro-2-fluorophenyl)piperidin-1-yl]phenyl}sulfamoyl)-N,N-dimethylbenzene-1-sulfonoimidamide], the concentration at half-maximal activity (AC50) was at most 2 µM.

Regarding `COCC1(C)CCN(c2ccccc2NS(=O)(=O)c2ccc(C(C)(C)OC)cc2)CC1` [Compound A-655, N-{2-[4-(methoxymethyl)-4-methylpiperidin-1-yl]phenyl}-4-(2-methoxypropan-2-yl)benzene-1-sulfonamide], the AC50 lay within 2.01 to 8 µM.

With `CN(C)S(=O)(=O)c1ccc(S(=O)(=O)N(C)c2cc(Cl)ccc2N2CCOCC2)cc1` [Compound A-285, N1-[5-chloro-2-(morpholin-4-yl)phenyl]-N1,N4,N4-trimethylbenzene-1,4-disulfonamide], the AC50 was at least 10 µM.

The compound `COc1ccc(S(=O)(=O)Nc2ccccc2N2CCC(Oc3ccc(F)cc3F)CC2)cc1` [Compound A-196, N-{2-[4-(2,4-difluorophenoxy)piperidin-1-yl]phenyl}-4-methoxybenzene-1-sulfonamide] returned an AC50 of at most 2 µM.

In turn, `CN(C)S(=O)(=O)c1ccc(S(=O)(=O)Nc2ccccc2N2CCC(C(N)=O)(c3ccc(F)cc3F)CC2)cc1` [Compound A-163, 4-(2,4-difluorophenyl)-1-{2-[4-(dimethylsulfamoyl)benzenesulfonamido]phenyl}piperidine-4-carboxamide] gave a half-maximal activity concentration (AC50) of at least 10 µM.

As to `CC(C)(C)C(=O)N1CCN(c2ccccc2NS(=O)(=O)c2ccc(OC(F)(F)F)cc2)CC1` [Compound A-568, N-{2-[4-(2,2-dimethylpropanoyl)piperazin-1-yl]phenyl}-4-(trifluoromethoxy)benzene-1-sulfonamide], the AC50 lay in the range of 8.01 to 9.99 µM.

`CN(C)S(=O)(=O)c1ccc(S(=O)(=O)Nc2ccccc2N2CCC(C(F)(F)F)CC2)cc1` [Compound A-550, N1,N1-dimethyl-N4-{2-[4-(trifluoromethyl)piperidin-1-yl]phenyl}benzene-1,4-disulfonamide] yielded an AC50 of at most 2 µM.

`CC(c1cccc(C#N)c1N1CCC(CN2C[C@@H](C)O[C@@H](C)C2)CC1)S(=O)(=O)c1ccc(S(=O)(=O)N(C)C)cc1` (stereo partly drawn) [Compound A-842, 4-((1-(3-cyano-2-(4-((2,6-dimethylmorpholino)methyl)piperidin-1-yl)phenyl)ethyl)sulfonyl)-N,N-dimethylbenzenesulfonamide] returned an AC50 of at most 2 µM.

`CC(C)(C)C(=O)N1CCN(c2ccccc2NS(=O)(=O)Cc2ccc3ccccc3c2)CC1` [Compound A-566, N-{2-[4-(2,2-dimethylpropanoyl)piperazin-1-yl]phenyl}-1-(naphthalen-2-yl)methanesulfonamide]: the AC50 was in the range of 2.01 to 8 µM.

`O=S(=O)(Nc1ccccc1N1CCN(c2ccc(Cl)cc2F)CC1)c1cccnc1` [Compound A-1, N-{2-[4-(4-chloro-2-fluorophenyl)piperazin-1-yl]phenyl}pyridine-3-sulfonamide] had an AC50 of at most 2 µM.

With `O=S1(=O)c2ccccc2CN1c1ccccc1N1CCC(c2ccc(Cl)cc2F)CC1` [Compound A-94, 2-{2-[4-(4-chloro-2-fluorophenyl)piperidin-1-yl]phenyl}-2,3-dihydro-1λ^6,2-benzothiazole-1,1-dione], the AC50 is 2.01 to 8 µM.

In turn, `COc1cccc(S(=O)(=O)Nc2cccc(Cl)c2N2CCOCC2)c1` [Compound A-367, N-[3-chloro-2-(morpholin-4-yl)phenyl]-3-methoxybenzene-1-sulfonamide] gave an AC50 of 2.01 to 8 µM.

As to `COC1(C)CCN(c2ccccc2NS(=O)(=O)c2ccc(S(=O)(=O)N(C)C)cc2)CC1` [Compound A-454, N4-[2-(4-methoxy-4-methylpiperidin-1-yl)phenyl]-N1,N1-dimethylbenzene-1,4-disulfonamide], the AC50 is at most 2 µM.

`CN(C)S(=N)(=O)c1ccc(S(=O)(=O)Nc2cccc(F)c2N2CCC(C3(N4CCOCC4)CC3)CC2)cc1` (stereo not drawn) [Compound A-858, 4-[(3-fluoro-2-{4-[1-(morpholin-4-yl)cyclopropyl]piperidin-1-yl}phenyl)sulfamoyl]-N,N-dimethylbenzene-1-sulfonoimidamide] showed an AC50 of at most 2 µM.

As for `CN(C)S(=O)(=O)c1ccc(S(=O)(=O)Nc2ccccc2N2CCN(CC(C)(F)F)CC2)cc1` [Compound A-525, N4-{2-[4-(2,2-difluoropropyl)piperazin-1-yl]phenyl}-N1,N1-dimethylbenzene-1,4-disulfonamide], the AC50 was at most 2 µM.

`CC(c1cccc(F)c1N1CCCCC1)S(=O)(=O)c1ccc2c(c1)CCS2(=O)=O` (stereo not drawn) [Compound A-920, 5-{1-[3-fluoro-2-(piperidin-1-yl)phenyl]ethanesulfonyl}-2,3-dihydro-1λ^6-benzothiophene-1,1-dione] had an AC50 of at least 10 µM.
